{
  "source": "patent US12122760B2",
  "about": "“Compound, composition, and use thereof in preparation of drug” (CHANGSHA ZEDA MEDICAL TECH. CO., LTD, priority 2019, dated 2024)",
  "key": {"AR-positive VCaP cells": {"system": "AR-positive VCaP cells", "assay": "Selective effects of the drug to cells (MTS; VCaP versus 293T and DU145)", "assay_type": "cell-based", "conditions": "4 days treatment, FIG. 10", "description": "(§1) 293T cells are AR-negative human embryonic kidney cells, DU145 cells are AR-negative prostate cancer cells, and VCaP cells are AR-positive prostate cancer cells. These three types of the cells are cultured in the 96-well plates and treated with the drugs (in the concentration gradient) respectively for 4 days. Then the inhibition of the drugs on cell proliferation are measure by MTS. Detailed process is as follows:\n(§2) The VCaP cells are cultured with 5% CSS and 1640 medium without phenol red, and inoculated in the 96-well plates, and 1×10^4 cells are added to each well. The 293T cells and the DU145 cells are cultured with 10% FBS and 1640 medium, and inoculated in the 96-well plates, and 2×10^3 cells are added to each well. The cells are incubated overnight to make the cells stick to a wall. Then the different concentrations of the drugs are added on the second day. After treatment with the drugs for 4 days, cell viability is measured by the MTS kit (Promega, USA). To each well, 10% of an MTS reagent is added, and incubation continued for 2 hours. The absorbance value at […] is then measured by the multi-functional microplate reader. The Graphpad Prism software is used to draw a curve by using the drug concentration as an abscissa and using the absorbance value of the drug treatment/the absorbance value of the blank treatment cell as an ordinate."}, "MDA-MB-453 TNBC cells": {"system": "MDA-MB-453 TNBC cells", "assay": "Cell proliferation of MDA-MB-453 (CCK8 cell viability)", "assay_type": "cell-based", "conditions": "72 h", "description": "8000 MDA-MB-453 cells were plated in each well of a 96-well plate and incubated for 48 hours. Then cells were treated with increasing concentrations of Zeta55, MDV3100 or SAHA for 72 h, At last, cell viability was measured using a CCK8 Assay kit."}, "[1]": {"system": "AR-negative cells (293T and DU145)", "assay": "Selective effects of the drug to cells (MTS), AR-negative cells", "assay_type": "cell-based, human", "conditions": "293T and DU145, 4 days treatment, FIG. 10", "description": "as §1, §2"}, "[2]": {"system": "AR protein in MDA-MB-453 TNBC cells", "assay": "AR protein Western blot in MDA-MB-453 cells", "assay_type": "cell-based", "conditions": "48 h, FIG. 8", "description": "MDA-MB-453 cells treated with Zeta55 or Tubastatin A at indicated concentrations for 48 h were harvested and lysed in ice-cold RIPA buffer with protease inhibitor Cocktail. After quantification by BCA, protein (30-50 μg) were separated with 10% SDS-PAGE gels and transferred onto polyvinylidene difluoride (PVDF) membranes. The following antibodies were used in this study: AR(CST,1:1000),α-tubulin(CST,1:1000), Ac-α-tubulin(CST,1:1000). Secondary antibodies: HRP-conjugated anti-mouse IgG and anti-rabbit IgG (Proteintech, 1:5000)."}, "androgen receptor (AR)": {"biological_target": "T1, androgen receptor (AR) (Homo sapiens, UniProt P10275)", "T1 construct": "expressed in transfected cells; host or cells: 293T cells", "T1 sequence (P10275 1-920)": "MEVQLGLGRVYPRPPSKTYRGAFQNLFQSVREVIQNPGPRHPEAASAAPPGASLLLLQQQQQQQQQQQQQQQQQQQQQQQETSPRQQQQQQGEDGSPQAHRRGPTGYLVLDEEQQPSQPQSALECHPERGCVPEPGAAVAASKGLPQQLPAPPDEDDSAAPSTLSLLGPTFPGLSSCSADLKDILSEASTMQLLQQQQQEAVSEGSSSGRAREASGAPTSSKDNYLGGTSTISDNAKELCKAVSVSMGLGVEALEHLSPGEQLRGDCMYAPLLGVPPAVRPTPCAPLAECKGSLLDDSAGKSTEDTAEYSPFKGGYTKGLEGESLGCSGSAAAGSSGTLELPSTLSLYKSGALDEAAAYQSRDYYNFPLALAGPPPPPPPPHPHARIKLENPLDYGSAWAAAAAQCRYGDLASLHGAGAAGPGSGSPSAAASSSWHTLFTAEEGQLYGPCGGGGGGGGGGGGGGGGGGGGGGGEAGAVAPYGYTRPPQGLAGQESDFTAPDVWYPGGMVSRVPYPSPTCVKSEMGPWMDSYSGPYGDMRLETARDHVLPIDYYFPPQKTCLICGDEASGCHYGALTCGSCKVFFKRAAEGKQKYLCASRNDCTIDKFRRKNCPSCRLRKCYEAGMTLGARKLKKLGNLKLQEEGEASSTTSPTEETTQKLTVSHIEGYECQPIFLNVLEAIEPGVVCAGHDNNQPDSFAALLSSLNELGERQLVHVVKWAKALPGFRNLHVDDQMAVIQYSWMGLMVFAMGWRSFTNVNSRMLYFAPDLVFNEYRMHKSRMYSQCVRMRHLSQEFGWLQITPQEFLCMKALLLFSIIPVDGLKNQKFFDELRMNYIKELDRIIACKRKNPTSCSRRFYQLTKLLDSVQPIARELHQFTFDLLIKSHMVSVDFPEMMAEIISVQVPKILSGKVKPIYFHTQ", "assay": "Luciferase reporter gene experiment (MMTV-LUC + pSV-AR in 293T cells)", "assay_type": "cell-based", "conditions": "10 nM DHT, FIG. 2", "description": "293T cells are cultured in a 96-well plate. AR plasmids and luciferase genes with AR target promoters are co-transfected in the 293T cells. AR activates the target promoters to express luciferase, and the expression level of the luciferase is directly proportional to AR activation. Adding DHT to the cells can activate AR and express the luciferase, thus enhancing fluorescence signal detection. By detecting the fluorescent signal, it can be examined whether an added drug has AR antagonist activity.\nThe luciferase reporter gene plasmid MMTV-LUC containing the androgen receptor (AR) target promoters and the plasmid pSV-AR expressing the androgen receptor (AR) are constructed. The 293T cells are inoculated in a 96-well plate, wherein each well containing 1×10^4 cells. The cells are incubated overnight to stick to the wall. On the second day, Lipofectamine® 3000 (Life technologies, USA) is used to transfect the plasmid into the cells. Each well is added with 180 ng of MMTV-LUC plasmid and 20 ng of pSV-AR plasmid. On the third day, each well is added with 10 nM of the DHT and the drugs of different concentrations of 1 nM, 10 nM, 100 nM, 1 uM, 10 uM, 25 uM, 50 uM respectively. The control is 10 nM of the DHT. On the fifth day, a luciferase reporter gene detection kit (Biyuntian company, China) is used to process the cells. 100 uL of cell lysate is added to the 96-well plate, and lyse for 20 min. Then centrifuging is performed at 4 degrees and 10000 g for 3 min. 50 uL of supernatant is taken and 100 uL of a luciferase detection reagent is added. After mixing, chemiluminescence is immediately detected on the multi-functional microplate reader. Graphpad Prism software is used to draw a curve by using the drug concentration as an abscissa and using drug fluorescence value/positive control fluorescence value as an ordinate. Herein MDV3100 is the positive control."}},
  "data": [
    {"smiles": "N#Cc1ccc(N2C(=O)C3(CCC3)N(c3ccc(C(=O)NO)c(F)c3)C2=S)cc1C(F)(F)F", "note": "[Zeta 55, 4-(7-(4-cyano-3-(trifluoromethyl)phenyl)-8-oxo-6-thio-5,7-diazaspiro[3.4]octane-5-yl)-2-fluoro-N-hydroxybenzamide]", "values": [
      {"measurement": "proliferation inhibition effect on AR-positive VCaP cells relative to AR-negative cells (293T and DU145)", "setting": "AR-positive VCaP cells", "value": "more than 20 times"},
      {"measurement": "selectivity of proliferation inhibition", "setting": "AR-positive VCaP cells", "value": "selective proliferation inhibition on the AR-positive VCaP cells"},
      {"measurement": "potency relative to MDV3100", "setting": "MDA-MB-453 TNBC cells; CCK8, FIG. 9", "value": "about 1.5 times"},
      {"measurement": "IC50", "setting": "MDA-MB-453 TNBC cells; Homo sapiens, CCK8, FIG. 9, read-out: IC50 of dose-dependent killing of the cells", "value": 11.1, "unit": "µM"},
      {"measurement": "cytotoxicity toward AR-negative cells", "setting": "[1]", "value": "may have low cytotoxicity toward AR-negative cells"},
      {"measurement": "reduction of AR protein", "setting": "[2]", "value": "significant dose-dependent reduction of AR protein"},
      {"measurement": "antagonist effect on the AR, antagonistic ability from high to low", "setting": "androgen receptor (AR)", "value": "Zeta32>Zeta55>Zeta34>Zeta57>Zeta33"}
    ]}
  ]
}
